Test results: patent US20260317319A1, “NOVEL ERGOLINES AND METHODS OF TREATING MOOD DISORDERS” (Gilgamesh Pharma Inc., priority 2023, published 2026)
Like-named read-outs stand apart in the source and are kept apart here.

Key:
[1] = target: T1, 5-HT2A receptor (Homo sapiens, UniProt P28223); experiment: cell-based; type: cell-based; set-up: expressed in transfected cells; host or cells: HEK293, stably transfected; details: HEK293, agonist, Ca2+ flux, HEK293, max dose; read-out: 5-HT2A % Act @ Max Dose
T1 sequence (P28223 whole entry): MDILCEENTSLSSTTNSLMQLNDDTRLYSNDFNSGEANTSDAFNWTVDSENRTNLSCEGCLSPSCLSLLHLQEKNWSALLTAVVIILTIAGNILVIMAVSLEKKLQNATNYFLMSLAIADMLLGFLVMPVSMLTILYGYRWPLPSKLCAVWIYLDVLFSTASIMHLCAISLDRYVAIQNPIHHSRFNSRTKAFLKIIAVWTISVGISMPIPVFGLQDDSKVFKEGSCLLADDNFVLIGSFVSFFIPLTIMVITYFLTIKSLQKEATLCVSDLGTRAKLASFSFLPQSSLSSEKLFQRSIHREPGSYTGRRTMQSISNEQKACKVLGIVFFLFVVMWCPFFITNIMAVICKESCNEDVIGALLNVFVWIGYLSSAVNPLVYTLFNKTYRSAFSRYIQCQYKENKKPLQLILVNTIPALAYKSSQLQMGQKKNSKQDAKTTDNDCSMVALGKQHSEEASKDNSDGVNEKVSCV
Protocol: (§1) Functional Assays at 5-HT2A, 5-HT2B, and 5-HT1A. Agonist activity at 5-HT2A, 5-HT2B, 5HT2C and 5-HT1A receptors was determined using a FLIPR Ca^2+ flux assay at WuXi AppTec (Hong Kong) Limited according to their standard protocols. Briefly, stably transfected cells expressing the receptor of interest and Gα15 in the case of 5-HT1A (HEK293 for 5-HT2A and 5-HT2B; CHO cells for 5-HT1A) were grown and plated in a 384 well plate and incubated at 37° C. and 5% CO2 overnight. A solution of 250 mM probenecid in 1 mL FLIPR assay buffer was prepared fresh. This was combined with a fluorescent dye (Fluo-4 Direct™) to make a final assay concentration of 2.5 mM. […] The fluorescent dye was then added to the assay plate along with assay buffer to a final volume of 40 μL. The cell plate was incubated for 50 min at 37° C. and 5% CO2 and placed into the FLIPR Tetra along with the compound plate. 10 μL of references and compounds were then transferred from the compound plate into the cell plate and the fluorescent signal was read.

[2] = target: T1, 5-HT2A receptor; experiment: biochemical; type: binding; set-up: expressed in transfected cells; host or cells: HEK293, stably transfected; details: radioligand binding, 5-HT2A
Summary of the method: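 Binding affinity comes from a [^3H]ketanserin radioligand assay run under literature-adapted conditions.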

[3] = target: T2, 5-HT1B receptor (Homo sapiens, UniProt P28222); experiment: cAMP accumulation functional assay at 5-HT1B; type: cell-based; details: agonist, cAMP accumulation, max dose; read-out: 5-HT1B % Act @ Max Dose
T2 construct: expressed in transfected cells
T2 sequence (P28222 whole entry): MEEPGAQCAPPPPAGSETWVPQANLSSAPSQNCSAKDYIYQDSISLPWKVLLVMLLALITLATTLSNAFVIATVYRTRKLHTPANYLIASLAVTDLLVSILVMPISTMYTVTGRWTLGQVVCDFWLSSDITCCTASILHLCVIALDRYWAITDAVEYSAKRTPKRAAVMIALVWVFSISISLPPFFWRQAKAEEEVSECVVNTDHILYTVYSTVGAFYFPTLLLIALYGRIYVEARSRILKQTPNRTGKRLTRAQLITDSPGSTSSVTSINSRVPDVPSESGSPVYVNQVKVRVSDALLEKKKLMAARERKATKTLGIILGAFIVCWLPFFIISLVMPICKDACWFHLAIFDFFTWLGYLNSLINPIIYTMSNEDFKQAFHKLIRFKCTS
Protocol: Functional Assay at 5-HT1B. Agonist activity at 5-HT1B was determined using a CAMP accumulation protocol at WuXi AppTec (Hong Kong) Limited according to their standard protocols. Briefly, stably transfected cells were plated in an OptiPlate-384 well plate, incubated at RT for 60 mins, and cAMP standard solution (800 nM, 10 μL) was added to the blank well. Then, 10 μL detection reagent was added to each well, the plate incubated for 60 mins at RT, and the plate read using En Vision.

[4] = target: T3, 5-HT2B receptor (Homo sapiens, UniProt P41595); experiment: cell-based; type: cell-based; details: HEK293, agonist, Ca2+ flux, HEK293, max dose; read-out: 5-HT2B % Act @ Max Dose
T3 construct: expressed in transfected cells; host or cells: HEK293, stably transfected
T3 sequence (P41595 whole entry): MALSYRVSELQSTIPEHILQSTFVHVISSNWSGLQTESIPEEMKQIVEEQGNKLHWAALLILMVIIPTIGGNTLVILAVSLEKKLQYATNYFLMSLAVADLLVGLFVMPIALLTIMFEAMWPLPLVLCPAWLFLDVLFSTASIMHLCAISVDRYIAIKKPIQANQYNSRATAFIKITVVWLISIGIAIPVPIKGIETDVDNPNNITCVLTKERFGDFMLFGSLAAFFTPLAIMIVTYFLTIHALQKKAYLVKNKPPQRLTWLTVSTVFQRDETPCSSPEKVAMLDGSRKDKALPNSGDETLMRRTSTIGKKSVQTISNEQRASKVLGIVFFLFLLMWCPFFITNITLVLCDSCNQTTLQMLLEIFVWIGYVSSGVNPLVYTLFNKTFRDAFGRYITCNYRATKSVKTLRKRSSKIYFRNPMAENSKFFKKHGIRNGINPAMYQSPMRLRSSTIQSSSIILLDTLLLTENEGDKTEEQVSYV
Protocol: as §1

[5] = target: T4, 5-HT1A receptor (Homo sapiens, UniProt P08908); experiment: cell-based; details: CHO, agonist, Ca2+ flux, CHO cells with Gα15, max dose; read-out: 5-HT1A % Act @ Max Dose
T4 construct: expressed in transfected cells; host or cells: CHO cells, stably transfected
T4 sequence (P08908 1-422): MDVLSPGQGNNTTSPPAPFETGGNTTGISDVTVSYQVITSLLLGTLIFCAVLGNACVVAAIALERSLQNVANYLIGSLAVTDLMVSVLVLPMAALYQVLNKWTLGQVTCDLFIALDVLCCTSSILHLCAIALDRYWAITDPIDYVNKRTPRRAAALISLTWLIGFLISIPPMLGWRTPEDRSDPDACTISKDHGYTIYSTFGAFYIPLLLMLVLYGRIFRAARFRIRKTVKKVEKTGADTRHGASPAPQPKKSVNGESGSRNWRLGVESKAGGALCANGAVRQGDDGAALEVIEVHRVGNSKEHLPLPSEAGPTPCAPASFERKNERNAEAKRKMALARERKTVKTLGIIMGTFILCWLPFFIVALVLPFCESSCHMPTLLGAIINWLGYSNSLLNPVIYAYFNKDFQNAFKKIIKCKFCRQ
Protocol: as §1

[6] = in vitro; type: in vitro ADME, mouse; details: MLM (male CD-1) 0.50 mg/mL, NADPH 1 mM, 1 μM compound, pH 7.4, 37° C., 60 min
Text: MLM Stability Pooled MLM from male CD-1 mice (BIOIVT M00501) were used.

[7] = in vitro; type: in vitro ADME, human; details: HLM 0.50 mg/mL, NADPH 1 mM, 1 μM compound, pH 7.4, 37° C., 60 min
[8] = in vitro; type: in vitro ADME, rat; details: RLM (male Sprague-Dawley) 0.50 mg/mL, NADPH 1 mM, 1 μM compound, pH 7.4, 37° C., 60 min
Text: RLM Stability Pooled RLM from male Sprague-Dawley rats (Xenotech R1000) were used.

[9] = target: T1, 5-HT2A receptor; experiment: cell-based; type: cell-based; details: agonist, beta-arrestin recruitment; for EC50: PathHunter, read-out: 5-HT2A Arrestin EC50; for Emax: max dose, read-out: 5-HT2A Arrestin % Act @ Max Dose
Protocol: Arrestin Functional Assay at 5-HT2A. Recruitment of beta-arrestin was determined using a PathHunter assay at Eurofins DiscoverX (Fremont, CA) according to their standard protocols. PathHunter GPCR beta-arrestin assays take advantage of DiscoverX's proprietary Enzyme Fragment Complementation technology. The GPCR is fused in frame with a small enzyme donor fragment ProLink™ (PK) and co-expressed in cells stably expressing a fusion protein of beta-arrestin and the larger, N-terminal deletion mutant of beta-galactosidase. Activation of the GPCR (5-HT2A receptor in this case) stimulates binding of beta-arrestin to the PK-tagged GPCR and forces complementation of the two enzyme fragments, resulting in the formation of an active beta-galactosidase enzyme. This interaction leads to an increase in enzyme activity that can be measured using chemiluminescent PathHunter Detection Reagents. Briefly, PathHunter cells expressing 5-HT2A receptors were seeded in a volume of 20 μL into 384-well plates and incubated at 37° C. for the appropriate time prior to testing. […] Plates were then imaged on a microplate reader and the agonist activity was calculated using the following formula: % Activity=100%×(mean RLU of test sample-mean RLU of vehicle control)/(mean MAX control ligand-mean RLU of vehicle control), where RLU=relative light units.

For `CCCN1C[C@H](C(=O)N(CC)CC)C=C2c3cccc4c3C(CN4)C[C@H]21` (mixture of isomers) [Compound 36, (6aR,9R)—N,N-diethyl-7-propyl-4,5,5a,6,6a,7,8,9-octahydroindolo[4,3-fg]quinoline-9-carboxamide], the Emax [1] was 77.5%, the “potency in receptor binding” value [2] was “reduced in potency compared to their dehydro counterparts” and the Emax [3] was 97.5%. It also gave an Emax [4] of 111% and an Emax [5] of 88.7%.

In the case of `CCN(CC)C(=O)[C@@H]1C=C2c3cccc4[nH]cc(c34)C[C@H]2N(Cc2ccccc2O)C1` [Compound 16, (6aR,9R)—N,N-diethyl-7-(2-hydroxybenzyl)-4,6,6a,7,8,9-hexahydroindolo[4,3-fg]quinoline-9-carboxamide], the Emax [1] is reported as 62%, the “Intrinsic clearance (Clint)” value [6] is reported as 1053.2 µL/min/mg and the “half-life (t1/2)” value [6] is reported as 1.3 min. The “Intrinsic clearance (Clint)” value [7] was 285.8 µL/min/mg, the “half-life (t1/2)” value [7] was 4.9 min and the Emax [3] was 90.1%. For the same compound, the Emax [4] was 26.5%, the “Intrinsic clearance (Clint)” value [8] was 616.3 µL/min/mg and the “half-life (t1/2)” value [8] was 2.2 min. It also gave an Emax [5] of 22.3%, an EC50 [9] of 3.96 nM and an Emax [9] of 47.6%.

With `CCN(CC)C(=O)[C@@H]1C=C2c3cccc4[nH]cc(c34)C[C@H]2N(CCc2cccc(OC)c2)C1` [Compound 20, (6aR,9R)—N,N-diethyl-7-(3-methoxyphenethyl)-4,6,6a,7,8,9-hexahydroindolo[4,3-fg]quinoline-9-carboxamide] the Emax [1] was 77.2%, the “Intrinsic clearance (Clint)” value [6] was 1548.2 µL/min/mg and the “half-life (t1/2)” value [6] was 0.9 min. The “Intrinsic clearance (Clint)” value [7] was 649.2 µL/min/mg, the “half-life (t1/2)” value [7] was 2.1 min and the Emax [3] was 34.6%. For the same compound, the Emax [4] was 3.6%, the “Intrinsic clearance (Clint)” value [8] was 1147.6 µL/min/mg and the “half-life (t1/2)” value [8] was 1.2 min. For the same compound, the Emax [5] was 3.85%, the EC50 [9] was 1.79 nM and the Emax [9] was 83.5%.

With `CCN(CC)C(=O)[C@@H]1C=C2c3cccc4[nH]cc(c34)C[C@H]2N(CCc2ccc(OC)cc2)C1` [Compound 21, (6aR,9R)—N,N-diethyl-7-(4-methoxyphenethyl)-4,6,6a,7,8,9-hexahydroindolo[4,3-fg]quinoline-9-carboxamide] the Emax [1] was 51.2%, the “Intrinsic clearance (Clint)” value [6] was 717.4 µL/min/mg and the “half-life (t1/2)” value [6] was 1.9 min. For the same compound, the “Intrinsic clearance (Clint)” value [7] was 367.7 µL/min/mg, the “half-life (t1/2)” value [7] was 3.8 min and the Emax [3] was 79.1%. For the same compound, the Emax [4] was 1.73%, the “Intrinsic clearance (Clint)” value [8] was 323.2 µL/min/mg and the “half-life (t1/2)” value [8] was 4.3 min. For the same compound, the Emax [5] was 8.2%, the EC50 [9] was 5.85 nM and the Emax [9] was 93.7%.

With `CCN(CC)C(=O)[C@@H]1C=C2c3cccc4[nH]cc(c34)C[C@H]2N(Cc2ccccn2)C1` [Compound 22, (6aR,9R)—N,N-diethyl-7-(pyridin-2-ylmethyl)-4,6,6a,7,8,9-hexahydroindolo[4,3-fg]quinoline-9-carboxamide] the Emax [1] was 64.5%, the “Intrinsic clearance (Clint)” value [6] was 150.0 µL/min/mg and the “half-life (t1/2)” value [6] was 9.2 min. The “Intrinsic clearance (Clint)” value [7] was 58.2 µL/min/mg, the “half-life (t1/2)” value [7] was 23.8 min and the Emax [3] was 89.2%. For the same compound, the Emax [4] was 7.74%, the “Intrinsic clearance (Clint)” value [8] was 104.8 µL/min/mg and the “half-life (t1/2)” value [8] was 13.2 min. The Emax [5] was 57.3%, the EC50 [9] was 6.33 nM and the Emax [9] was 40.6%.

In the case of `CCN(CC)C(=O)[C@@H]1C=C2c3cccc4[nH]cc(c34)C[C@H]2N(CCc2ccccn2)C1` [Compound 23, (6aR,9R)—N,N-diethyl-7-(2-(pyridin-2-yl)ethyl)-4,6,6a,7,8,9-hexahydroindolo[4,3-fg]quinoline-9-carboxamide], the Emax [1] is reported as 85.4%, the “Intrinsic clearance (Clint)” value [6] is reported as 768.7 µL/min/mg and the “half-life (t1/2)” value [6] is reported as 1.8 min. The “Intrinsic clearance (Clint)” value [7] was 193.3 µL/min/mg, the “half-life (t1/2)” value [7] was 7.2 min and the Emax [3] was 83.7%. The Emax [4] was 12.5%, the “Intrinsic clearance (Clint)” value [8] was 331.7 µL/min/mg and the “half-life (t1/2)” value [8] was 4.2 min. The Emax [5] was 46.2%, the EC50 [9] was 5.97 nM and the Emax [9] was 65.2%.
